Like-named read-outs stand apart in the source and are kept apart here. Positions of bridges follow the written chain, without caps; N, C: chain ends. Non-standard residues stand in square brackets, D forms with d. Residues, ends and D or L forms follow the SMILES beside them. Phe(4-COOH) = N[C@@H](Cc1ccc(C(=O)O)cc1)C(=O)O; Lys(Me2) = CN(C)CCCC[C@H](N)C(=O)O; 2Pal = N[C@@H](Cc1ccccn1)C(=O)O

Experimental findings from US9340590B2 (priority 2011, dated 2016) are described below.

Assay in all cases: cell-based
For one assay, the target named is hNav1.7 (Homo sapiens, UniProt Q15858). It counts as cell-based.
The target in a further assay is hNav1.5 (Homo sapiens, UniProt Q14524). The settings on record: IonWorks Quattro, read-out: IWQ Use Nav1.5. (The patch-clamp technique gives a direct electrical read-out from membranes.)
In the next assay the target is hNav1.3 (Homo sapiens, UniProt Q9NY46). The settings on record: IonWorks Quattro, read-out: IWQ Use Nav1.3.
[1] abbreviates: IonWorks Quattro, Use, read-out: IWQ Use Nav1.7.
Setting [2] is: Table 22, IonWorks Quattro, use, […], read-out: IWQ Use Nav1.7.

Chain of hNav1.3 (Q9NY46 whole entry, looked up): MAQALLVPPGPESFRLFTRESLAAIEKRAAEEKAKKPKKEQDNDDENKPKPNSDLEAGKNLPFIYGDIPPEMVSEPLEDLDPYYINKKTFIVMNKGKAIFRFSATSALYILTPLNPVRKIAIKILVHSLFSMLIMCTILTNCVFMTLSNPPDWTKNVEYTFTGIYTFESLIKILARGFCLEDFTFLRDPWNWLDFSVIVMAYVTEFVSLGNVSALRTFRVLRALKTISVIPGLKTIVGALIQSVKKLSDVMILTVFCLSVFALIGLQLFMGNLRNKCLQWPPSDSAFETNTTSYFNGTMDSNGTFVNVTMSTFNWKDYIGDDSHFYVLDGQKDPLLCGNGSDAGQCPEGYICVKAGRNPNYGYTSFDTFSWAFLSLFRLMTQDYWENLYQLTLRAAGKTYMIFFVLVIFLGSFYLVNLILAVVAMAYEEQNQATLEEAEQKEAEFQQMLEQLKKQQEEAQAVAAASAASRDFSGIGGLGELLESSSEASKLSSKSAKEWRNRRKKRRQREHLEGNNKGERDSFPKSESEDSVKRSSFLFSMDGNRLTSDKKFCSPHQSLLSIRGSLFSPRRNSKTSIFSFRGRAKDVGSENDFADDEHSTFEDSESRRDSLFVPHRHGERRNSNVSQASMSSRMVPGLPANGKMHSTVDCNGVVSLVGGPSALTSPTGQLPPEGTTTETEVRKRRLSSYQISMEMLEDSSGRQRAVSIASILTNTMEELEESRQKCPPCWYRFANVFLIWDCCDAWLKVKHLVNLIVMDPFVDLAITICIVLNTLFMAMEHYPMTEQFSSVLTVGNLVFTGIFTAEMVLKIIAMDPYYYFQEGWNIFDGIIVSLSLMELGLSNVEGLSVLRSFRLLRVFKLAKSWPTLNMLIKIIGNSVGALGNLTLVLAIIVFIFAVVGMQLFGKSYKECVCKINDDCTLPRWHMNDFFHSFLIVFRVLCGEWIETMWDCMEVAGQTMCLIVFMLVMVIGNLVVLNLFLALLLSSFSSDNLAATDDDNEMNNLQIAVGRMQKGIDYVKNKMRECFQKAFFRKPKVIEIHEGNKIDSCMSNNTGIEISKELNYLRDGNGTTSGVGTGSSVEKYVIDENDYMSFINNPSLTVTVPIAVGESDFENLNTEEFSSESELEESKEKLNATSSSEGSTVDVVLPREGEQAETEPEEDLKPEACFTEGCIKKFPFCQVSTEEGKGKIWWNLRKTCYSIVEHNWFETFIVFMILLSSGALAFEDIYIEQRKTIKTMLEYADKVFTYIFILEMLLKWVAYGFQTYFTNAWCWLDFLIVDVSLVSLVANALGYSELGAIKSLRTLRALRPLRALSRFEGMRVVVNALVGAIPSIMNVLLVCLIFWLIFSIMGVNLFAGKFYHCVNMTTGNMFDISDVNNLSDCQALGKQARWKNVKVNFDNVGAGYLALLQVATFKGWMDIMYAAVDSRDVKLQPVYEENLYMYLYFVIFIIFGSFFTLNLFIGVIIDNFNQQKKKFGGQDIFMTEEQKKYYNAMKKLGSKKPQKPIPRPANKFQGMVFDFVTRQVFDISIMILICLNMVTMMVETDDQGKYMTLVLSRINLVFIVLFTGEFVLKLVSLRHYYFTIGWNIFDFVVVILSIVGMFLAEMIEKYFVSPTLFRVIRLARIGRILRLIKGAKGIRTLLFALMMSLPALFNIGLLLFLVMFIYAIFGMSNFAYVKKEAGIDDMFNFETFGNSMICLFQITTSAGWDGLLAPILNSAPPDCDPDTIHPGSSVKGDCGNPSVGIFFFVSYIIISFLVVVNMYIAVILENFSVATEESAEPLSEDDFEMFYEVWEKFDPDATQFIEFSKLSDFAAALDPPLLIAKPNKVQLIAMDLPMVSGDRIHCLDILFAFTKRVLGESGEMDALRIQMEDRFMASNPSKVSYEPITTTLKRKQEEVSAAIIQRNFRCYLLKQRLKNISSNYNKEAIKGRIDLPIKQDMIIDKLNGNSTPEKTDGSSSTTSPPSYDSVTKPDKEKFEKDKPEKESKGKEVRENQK
Chain of hNav1.7 (Q15858 whole entry, looked up): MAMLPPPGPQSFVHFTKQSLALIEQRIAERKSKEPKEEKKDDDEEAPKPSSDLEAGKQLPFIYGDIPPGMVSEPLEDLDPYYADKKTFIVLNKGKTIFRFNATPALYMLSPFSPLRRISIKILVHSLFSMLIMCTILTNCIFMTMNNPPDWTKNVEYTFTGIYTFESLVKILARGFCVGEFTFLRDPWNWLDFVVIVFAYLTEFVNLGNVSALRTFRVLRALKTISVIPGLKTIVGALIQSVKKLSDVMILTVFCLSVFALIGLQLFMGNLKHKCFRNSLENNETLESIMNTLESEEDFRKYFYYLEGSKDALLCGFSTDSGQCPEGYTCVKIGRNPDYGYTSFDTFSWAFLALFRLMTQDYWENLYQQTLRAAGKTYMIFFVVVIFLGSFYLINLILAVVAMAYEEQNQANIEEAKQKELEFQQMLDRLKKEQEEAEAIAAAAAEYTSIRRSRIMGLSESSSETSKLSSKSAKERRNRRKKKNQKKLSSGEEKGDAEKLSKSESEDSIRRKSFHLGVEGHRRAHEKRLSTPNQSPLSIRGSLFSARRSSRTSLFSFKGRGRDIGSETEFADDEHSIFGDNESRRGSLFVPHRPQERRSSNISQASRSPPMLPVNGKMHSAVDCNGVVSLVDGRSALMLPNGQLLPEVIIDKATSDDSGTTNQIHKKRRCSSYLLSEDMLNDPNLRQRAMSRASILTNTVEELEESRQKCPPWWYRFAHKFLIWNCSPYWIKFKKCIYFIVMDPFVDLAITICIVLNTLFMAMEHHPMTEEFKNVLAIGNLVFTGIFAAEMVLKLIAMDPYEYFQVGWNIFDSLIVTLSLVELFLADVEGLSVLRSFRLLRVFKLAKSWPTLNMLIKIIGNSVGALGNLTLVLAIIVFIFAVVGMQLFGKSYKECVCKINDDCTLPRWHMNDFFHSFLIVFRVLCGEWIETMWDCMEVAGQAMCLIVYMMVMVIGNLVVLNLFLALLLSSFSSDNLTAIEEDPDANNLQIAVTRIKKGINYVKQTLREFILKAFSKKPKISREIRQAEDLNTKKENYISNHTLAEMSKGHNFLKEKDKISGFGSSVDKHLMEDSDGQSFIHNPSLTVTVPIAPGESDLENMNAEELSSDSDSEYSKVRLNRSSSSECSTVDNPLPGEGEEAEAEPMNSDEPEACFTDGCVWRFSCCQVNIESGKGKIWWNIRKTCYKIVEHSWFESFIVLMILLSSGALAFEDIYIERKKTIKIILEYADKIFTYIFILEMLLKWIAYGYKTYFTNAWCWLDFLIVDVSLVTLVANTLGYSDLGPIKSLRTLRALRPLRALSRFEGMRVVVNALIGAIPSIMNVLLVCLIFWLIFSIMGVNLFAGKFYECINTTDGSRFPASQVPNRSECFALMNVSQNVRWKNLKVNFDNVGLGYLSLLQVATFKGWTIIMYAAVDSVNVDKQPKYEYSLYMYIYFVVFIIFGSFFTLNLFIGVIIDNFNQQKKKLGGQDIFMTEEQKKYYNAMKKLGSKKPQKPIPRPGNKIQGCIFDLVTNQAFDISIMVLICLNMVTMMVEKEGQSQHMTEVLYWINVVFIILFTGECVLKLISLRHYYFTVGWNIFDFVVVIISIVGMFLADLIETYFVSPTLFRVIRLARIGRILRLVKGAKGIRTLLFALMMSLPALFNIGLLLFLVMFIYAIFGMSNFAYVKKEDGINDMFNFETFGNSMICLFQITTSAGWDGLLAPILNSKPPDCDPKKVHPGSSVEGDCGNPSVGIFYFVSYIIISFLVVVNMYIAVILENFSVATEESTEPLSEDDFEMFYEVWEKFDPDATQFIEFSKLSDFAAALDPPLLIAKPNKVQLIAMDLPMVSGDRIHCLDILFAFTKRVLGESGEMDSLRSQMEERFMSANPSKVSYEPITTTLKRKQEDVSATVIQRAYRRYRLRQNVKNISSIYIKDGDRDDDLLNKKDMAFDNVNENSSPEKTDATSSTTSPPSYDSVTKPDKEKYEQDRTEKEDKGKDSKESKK

In the case of `CC[C@H](C)[C@@H]1NC(=O)[C@@H]2CSSC[C@@H]3NC(=O)[C@H](Cc4ccc(C(=O)O)cc4)NC(=O)[C@H](CC(C)C)NC(=O)[C@H](CC(N)=O)NC(=O)[C@@H]4CCCN4C(=O)[C@H](CCCNC(=N)N)NC(=O)[C@H](CSSC[C@H](NC(=O)[C@@H](N)CC(=O)O)C(=O)N[C@@H](CC(C)C)C(=O)NCC(=O)N[C@@H](Cc4ccccc4)C(=O)N[C@@H](CCSC)C(=O)N[C@@H](CCCNC(=N)N)C(=O)N[C@@H](CCCCN)C(=O)N2)NC(=O)[C@H](CSSC[C@@H](C(=O)N[C@@H](CCCCN)C(=O)N[C@@H](Cc2ccc(O)cc2)C(=O)N[C@H](C(=O)N[C@@H](Cc2ccccc2)C(N)=O)C(C)C)NC(=O)[C@H](Cc2c[nH]c4ccccc24)NC(=O)[C@H](CCCCN)NC(=O)[C@H](Cc2c[nH]cn2)NC(=O)[C@H]([C@@H](C)O)NC(=O)[C@H](CCCNC(=N)N)NC(=O)[C@H](CO)NC3=O)NC(=O)[C@H](CCCCN)NC(=O)[C@H](CC(=O)O)NC(=O)[C@H](CC(N)=O)NC(=O)[C@H](CC(=O)O)NC(=O)[C@@H]2CCCN2C1=O` [compound 333] (H-DCLGFMRKCIPDNDKCCRPNL[Phe(4-COOH)]CSRTHKWCKYVF-NH2; disulfide 2-17, 9-23, 16-30), the figures for the IC50 on hNav1.7 (setting [1]), on hNav1.5 (Use) and on hNav1.3 (Use) were 5770 nM, 7500 nM and 4470 nM, respectively.

`CC[C@H](C)[C@@H]1NC(=O)[C@@H]2CSSC[C@@H]3NC(=O)[C@H](Cc4ccccn4)NC(=O)[C@H](CC(C)C)NC(=O)[C@H](CC(N)=O)NC(=O)[C@@H]4CCCN4C(=O)[C@H](CCCNC(=N)N)NC(=O)[C@H](CSSC[C@H](NC(=O)[C@@H](N)CC(=O)O)C(=O)N[C@@H](CC(C)C)C(=O)NCC(=O)N[C@@H](Cc4ccccc4)C(=O)N[C@@H](CCSC)C(=O)N[C@@H](CCCNC(=N)N)C(=O)N[C@@H](CCCCN)C(=O)N2)NC(=O)[C@H](CSSC[C@@H](C(=O)N[C@@H](CCCCN)C(=O)N[C@@H](Cc2ccc(O)cc2)C(=O)N[C@H](C(=O)N[C@@H](Cc2ccccc2)C(N)=O)C(C)C)NC(=O)[C@H](Cc2c[nH]c4ccccc24)NC(=O)[C@H](CCCCN)NC(=O)[C@H](Cc2c[nH]cn2)NC(=O)[C@H]([C@@H](C)O)NC(=O)[C@H](CCCNC(=N)N)NC(=O)[C@H](CO)NC3=O)NC(=O)[C@H](CCCCN)NC(=O)[C@H](CC(=O)O)NC(=O)[C@H](CC(N)=O)NC(=O)[C@H](CC(=O)O)NC(=O)[C@@H]2CCCN2C1=O` [compound 334] (H-DCLGFMRKCIPDNDKCCRPNL[2Pal]CSRTHKWCKYVF-NH2; disulfide 2-17, 9-23, 16-30): the IC50 was found to be 330 nM on hNav1.7 (setting [1]), 11000 nM on hNav1.5 (Use) and 140 nM on hNav1.3 (Use).

Turning to `CC[C@H](C)[C@@H]1NC(=O)[C@@H]2CSSC[C@@H]3NC(=O)[C@H](C(C)C)NC(=O)[C@H](CC(C)C)NC(=O)[C@H](CC(N)=O)NC(=O)[C@@H]4CCCN4C(=O)[C@H](CCCNC(=N)N)NC(=O)[C@H](CSSC[C@H](NC(=O)[C@@H](N)CC(=O)O)C(=O)N[C@@H](CC(C)C)C(=O)NCC(=O)N[C@@H](Cc4ccccc4)C(=O)N[C@@H](CCSC)C(=O)N[C@@H](CCCNC(=N)N)C(=O)N[C@@H](CCCCN)C(=O)N2)NC(=O)[C@H](CSSC[C@@H](C(=O)N[C@@H](CCCCN)C(=O)N[C@@H](Cc2ccc(O)cc2)C(=O)N[C@H](C(=O)N[C@@H](Cc2ccccc2)C(N)=O)C(C)C)NC(=O)[C@H](Cc2c[nH]c4ccccc24)NC(=O)[C@H](CCCCN)NC(=O)[C@H](Cc2c[nH]cn2)NC(=O)[C@H]([C@@H](C)O)NC(=O)[C@H](CCCCN(C)C)NC(=O)[C@H](CO)NC3=O)NC(=O)[C@H](CCCCN)NC(=O)[C@H](CC(=O)O)NC(=O)[C@H](CC(N)=O)NC(=O)[C@H](CC(=O)O)NC(=O)[C@@H]2CCCN2C1=O` [compound 335] (H-DCLGFMRKCIPDNDKCCRPNLVCS[Lys(Me2)]THKWCKYVF-NH2; disulfide 2-17, 9-23, 16-30), the values for the IC50 on hNav1.7 (setting [1]), at hNav1.5 (Use) and on hNav1.3 (Use) were 310 nM, 7930 nM and 110 nM, respectively.

Regarding `CC[C@H](C)[C@@H]1NC(=O)[C@@H]2CSSC[C@@H]3NC(=O)[C@H](C(C)C)NC(=O)[C@H](CC(C)C)NC(=O)[C@H](CC(N)=O)NC(=O)[C@@H]4CCCN4C(=O)[C@H](CCCNC(=N)N)NC(=O)[C@H](CSSC[C@H](NC(=O)[C@@H](N)CC(=O)O)C(=O)N[C@@H](CC(C)C)C(=O)NCC(=O)N[C@@H](Cc4ccccc4)C(=O)N[C@@H](CCSC)C(=O)N[C@@H](CCCNC(=N)N)C(=O)N[C@@H](CCCCN)C(=O)N2)NC(=O)[C@H](CSSC[C@@H](C(=O)N[C@@H](CCCCN)C(=O)N[C@@H](Cc2ccc(O)cc2)C(=O)N[C@H](C(=O)N[C@@H](Cc2ccccc2)C(N)=O)C(C)C)NC(=O)[C@H](Cc2c[nH]c4ccccc24)NC(=O)[C@H](CCCCN)NC(=O)[C@H](Cc2c[nH]cn2)NC(=O)[C@H]([C@@H](C)O)NC(=O)[C@H](CCCNC(=NC)NC)NC(=O)[C@H](CO)NC3=O)NC(=O)[C@H](CCCCN)NC(=O)[C@H](CC(=O)O)NC(=O)[C@H](CC(N)=O)NC(=O)[C@H](CC(=O)O)NC(=O)[C@@H]2CCCN2C1=O` [compound 336], the values for the IC50 at hNav1.7, at hNav1.5 (Use) and on hNav1.3 (Use) were 140 nM, 9220 nM and 110 nM, respectively.

As to `CC[C@H](C)[C@@H]1NC(=O)[C@@H]2CSSC[C@@H]3NC(=O)[C@H](C(C)C)NC(=O)[C@H](CC(C)C)NC(=O)[C@H](CC(N)=O)NC(=O)[C@@H]4CCCN4C(=O)[C@H](CCCNC(=N)N)NC(=O)[C@H](CSSC[C@H](NC(=O)[C@@H](N)CC(=O)O)C(=O)N[C@@H](CC(C)C)C(=O)NCC(=O)N[C@@H](Cc4ccccc4)C(=O)N[C@@H](CCSC)C(=O)N[C@@H](CCCNC(=N)N)C(=O)N[C@@H](CCCCN)C(=O)N2)NC(=O)[C@H](CSSC[C@@H](C(=O)N[C@@H](CCCCN)C(=O)N[C@@H](Cc2ccc(O)cc2)C(=O)N[C@H](C(=O)N[C@@H](Cc2ccccc2)C(N)=O)C(C)C)NC(=O)[C@H](Cc2c[nH]c4ccccc24)NC(=O)[C@H](CCCCN)NC(=O)[C@H](Cc2c[nH]cn2)NC(=O)[C@H](CO)NC(=O)[C@H](CCCNC(=N)N)NC(=O)[C@H](CO)NC3=O)NC(=O)[C@H](CCCCN)NC(=O)[C@H](CC(=O)O)NC(=O)[C@H](CC(N)=O)NC(=O)[C@H](CC(=O)O)NC(=O)[C@@H]2CCCN2C1=O` [compound 338] (H-DCLGFMRKCIPDNDKCCRPNLVCSRSHKWCKYVF-NH2; disulfide 2-17, 9-23, 16-30), the IC50 on hNav1.7 (setting [2]) is 100 nM; at hNav1.5 (Table 22, use, […]), 12300 nM; at hNav1.3 (Table 22, use, […]) it was 90 nM.

Regarding `CC[C@H](C)[C@@H]1NC(=O)[C@@H]2CSSC[C@@H]3NC(=O)[C@H](C(C)C)NC(=O)[C@H](CC(C)C)NC(=O)[C@H](CC(N)=O)NC(=O)[C@@H]4CCCN4C(=O)[C@H](CCCNC(=N)N)NC(=O)[C@H](CSSC[C@H](NC(=O)[C@@H](N)CC(=O)O)C(=O)N[C@@H](CC(C)C)C(=O)NCC(=O)N[C@@H](Cc4ccccc4)C(=O)N[C@@H](CCSC)C(=O)N[C@@H](CCCNC(=N)N)C(=O)N[C@@H](CCCCN)C(=O)N2)NC(=O)[C@H](CSSC[C@@H](C(=O)N[C@@H](CCCCN)C(=O)N[C@@H](Cc2ccc(O)cc2)C(=O)N[C@H](C(=O)N[C@@H](Cc2ccccc2)C(N)=O)C(C)C)NC(=O)[C@H](Cc2c[nH]c4ccccc24)NC(=O)[C@H](CCCCN)NC(=O)[C@H](Cc2c[nH]cn2)NC(=O)[C@H](CCC(N)=O)NC(=O)[C@H](CCCNC(=N)N)NC(=O)[C@H](CO)NC3=O)NC(=O)[C@H](CCCCN)NC(=O)[C@H](CC(=O)O)NC(=O)[C@H](CC(N)=O)NC(=O)[C@H](CC(=O)O)NC(=O)[C@@H]2CCCN2C1=O` [compound 339] (H-DCLGFMRKCIPDNDKCCRPNLVCSRQHKWCKYVF-NH2; disulfide 2-17, 9-23, 16-30), the IC50 on hNav1.7 (setting [2]) worked out at 140 nM; on hNav1.5 (Table 22, use, […]), 17900 nM; on hNav1.3 (Table 22, use, […]), 90 nM.

As for `CC[C@H](C)[C@@H]1NC(=O)[C@@H]2CSSC[C@@H]3NC(=O)[C@H](C(C)C)NC(=O)[C@H](CC(C)C)NC(=O)[C@H](CC(N)=O)NC(=O)[C@@H]4CCCN4C(=O)[C@H](CCCNC(=N)N)NC(=O)[C@H](CSSC[C@H](NC(=O)[C@@H](N)CC(=O)O)C(=O)N[C@@H](CC(C)C)C(=O)NCC(=O)N[C@@H](Cc4ccccc4)C(=O)N[C@@H](CCSC)C(=O)N[C@@H](CCCNC(=N)N)C(=O)N[C@@H](CCCCN)C(=O)N2)NC(=O)[C@H](CSSC[C@@H](C(=O)N[C@@H](CCCCN)C(=O)N[C@@H](Cc2ccc(O)cc2)C(=O)N[C@H](C(=O)N[C@@H](Cc2ccccc2)C(N)=O)C(C)C)NC(=O)[C@H](Cc2c[nH]c4ccccc24)NC(=O)[C@H](CCCCN)NC(=O)[C@H](Cc2c[nH]cn2)NC(=O)[C@H](Cc2ccc(O)cc2)NC(=O)[C@H](CCCNC(=N)N)NC(=O)[C@H](CO)NC3=O)NC(=O)[C@H](CCCCN)NC(=O)[C@H](CC(=O)O)NC(=O)[C@H](CC(N)=O)NC(=O)[C@H](CC(=O)O)NC(=O)[C@@H]2CCCN2C1=O` [compound 340] (H-DCLGFMRKCIPDNDKCCRPNLVCSRYHKWCKYVF-NH2; disulfide 2-17, 9-23, 16-30), the IC50 on hNav1.7 (setting [2]) was 80 nM; at hNav1.5 (Table 22, use, […]) it was 5510 nM; on hNav1.3 (Table 22, use, […]), 60 nM.

With `CC[C@H](C)[C@@H]1NC(=O)[C@@H]2CSSC[C@@H]3NC(=O)[C@H](C(C)C)NC(=O)[C@H](CC(C)C)NC(=O)[C@H](CC(N)=O)NC(=O)[C@@H]4CCCN4C(=O)[C@H](CCCNC(=N)N)NC(=O)[C@H](CSSC[C@H](NC(=O)[C@@H](N)CC(=O)O)C(=O)N[C@@H](CC(C)C)C(=O)NCC(=O)N[C@@H](Cc4ccccc4)C(=O)N[C@@H](CCSC)C(=O)N[C@@H](CCCNC(=N)N)C(=O)N[C@@H](CCCCN)C(=O)N2)NC(=O)[C@H](CSSC[C@@H](C(=O)N[C@@H](CCCCN)C(=O)N[C@@H](Cc2ccc(O)cc2)C(=O)N[C@H](C(=O)N[C@@H](Cc2ccccc2)C(N)=O)C(C)C)NC(=O)[C@H](Cc2c[nH]c4ccccc24)NC(=O)[C@H](CCCCN)NC(=O)[C@H](Cc2c[nH]cn2)NC(=O)[C@H](Cc2ccccc2)NC(=O)[C@H](CCCNC(=N)N)NC(=O)[C@H](CO)NC3=O)NC(=O)[C@H](CCCCN)NC(=O)[C@H](CC(=O)O)NC(=O)[C@H](CC(N)=O)NC(=O)[C@H](CC(=O)O)NC(=O)[C@@H]2CCCN2C1=O` [compound 341] (H-DCLGFMRKCIPDNDKCCRPNLVCSRFHKWCKYVF-NH2; disulfide 2-17, 9-23, 16-30), the IC50 on hNav1.7 (setting [2]) was found to be 80 nM; on hNav1.5 (Table 22, use, […]) it was 5880 nM; on hNav1.3 (Table 22, use, […]), 100 nM.
